Source: patent publication US20060235222A1, “Indole-derivative modulators of steroid hormone nuclear receptors” (ELI LILLY AND COMPANY, priority 2003, published 2006)

Legend:
human MR = target: T1, human MR (Homo sapiens, UniProt P08235); test: Mineralocorticoid Receptor Binding Assay (Method 1), [3H]-aldosterone competition; settings: 0.5 nM [3H]-aldosterone, human MR expressed in Sf9 cells
T1 construct: The full length human MR gene is cloned from a human kidney or human brain cDNA library; inferred from own knowledge of the pAcHLT vector (N); made in house; host or cells: Sf9 insect cells (baculovirus)
T1 sequence (P08235 1-984): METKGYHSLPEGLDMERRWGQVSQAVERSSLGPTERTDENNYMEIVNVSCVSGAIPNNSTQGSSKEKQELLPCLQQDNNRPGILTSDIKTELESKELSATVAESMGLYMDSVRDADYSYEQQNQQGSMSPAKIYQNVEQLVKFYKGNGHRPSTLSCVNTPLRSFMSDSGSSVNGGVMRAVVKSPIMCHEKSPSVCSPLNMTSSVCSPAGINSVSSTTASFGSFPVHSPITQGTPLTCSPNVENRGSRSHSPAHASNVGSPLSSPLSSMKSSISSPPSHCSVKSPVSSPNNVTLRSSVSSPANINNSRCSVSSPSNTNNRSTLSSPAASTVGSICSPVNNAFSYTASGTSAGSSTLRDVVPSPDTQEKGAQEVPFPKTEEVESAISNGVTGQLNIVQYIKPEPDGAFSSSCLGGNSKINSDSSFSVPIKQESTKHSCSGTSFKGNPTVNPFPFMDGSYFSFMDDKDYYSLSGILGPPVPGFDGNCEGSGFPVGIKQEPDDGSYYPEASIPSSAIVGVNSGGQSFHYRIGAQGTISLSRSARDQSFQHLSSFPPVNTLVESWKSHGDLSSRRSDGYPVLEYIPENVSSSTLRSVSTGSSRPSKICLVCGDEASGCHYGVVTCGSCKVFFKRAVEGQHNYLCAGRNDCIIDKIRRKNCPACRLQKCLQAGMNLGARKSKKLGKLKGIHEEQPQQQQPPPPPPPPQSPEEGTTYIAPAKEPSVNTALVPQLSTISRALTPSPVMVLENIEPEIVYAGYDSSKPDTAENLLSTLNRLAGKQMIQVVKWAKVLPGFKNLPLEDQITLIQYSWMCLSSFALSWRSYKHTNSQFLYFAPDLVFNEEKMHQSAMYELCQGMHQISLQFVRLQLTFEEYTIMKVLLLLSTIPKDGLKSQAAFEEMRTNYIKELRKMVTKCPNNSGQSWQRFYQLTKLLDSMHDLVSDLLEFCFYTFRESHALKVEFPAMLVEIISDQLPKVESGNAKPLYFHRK
Method in brief: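 Full-length human MR expressed in Sf9 cells via baculovirus; lysate supernatant (about 20-25 μg protein) incubated with 0.5 nM [3H]-aldosterone and test compound for about 16 h at 4° C. Buffer was Tris/molybdate/phosphate/pyrophosphate with 10% glycerol, pH 7.5; filter-bound complex counted by scintillation.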

glucocorticoid receptor = target: T2, glucocorticoid receptor (Homo sapiens, UniProt P04150); test: Glucocorticoid Receptor Binding Assay (Method 1), [3H]-dexamethasone competition, A549 cell extract; settings: 1.86 nM [3H]-dexamethasone, read-out: GR Ki (nM) Method 1
T2 construct: containing 50-200 ug of A549 cell extract and 1.86 nM; host or cells: A549 human lung epithelial cells
T2 sequence (P04150 1-777): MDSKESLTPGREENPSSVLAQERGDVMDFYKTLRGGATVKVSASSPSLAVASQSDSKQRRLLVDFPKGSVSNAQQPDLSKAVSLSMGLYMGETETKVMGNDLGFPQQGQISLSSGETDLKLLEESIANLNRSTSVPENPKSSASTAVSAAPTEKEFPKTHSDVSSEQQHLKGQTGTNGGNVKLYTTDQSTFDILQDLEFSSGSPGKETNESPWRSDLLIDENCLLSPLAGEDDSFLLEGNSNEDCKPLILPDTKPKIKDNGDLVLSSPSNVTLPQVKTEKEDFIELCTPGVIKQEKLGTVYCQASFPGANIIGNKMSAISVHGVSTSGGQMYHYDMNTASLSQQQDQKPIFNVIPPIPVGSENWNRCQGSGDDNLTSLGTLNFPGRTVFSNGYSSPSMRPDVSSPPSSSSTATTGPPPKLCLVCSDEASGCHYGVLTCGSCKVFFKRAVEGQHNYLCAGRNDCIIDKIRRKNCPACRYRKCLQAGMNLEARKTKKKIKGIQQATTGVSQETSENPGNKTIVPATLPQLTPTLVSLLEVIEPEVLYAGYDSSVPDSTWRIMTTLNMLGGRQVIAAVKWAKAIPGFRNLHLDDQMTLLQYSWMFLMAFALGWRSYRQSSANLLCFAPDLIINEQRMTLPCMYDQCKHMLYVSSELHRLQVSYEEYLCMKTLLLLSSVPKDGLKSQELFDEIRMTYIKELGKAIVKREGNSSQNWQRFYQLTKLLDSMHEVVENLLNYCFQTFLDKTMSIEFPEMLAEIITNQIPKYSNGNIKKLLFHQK
Method in brief: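 Receptor source: sonicated extract of human A549 lung epithelial cells in glycerol/Tris-HCl pH 7.2 buffer with sodium molybdate. [3H]-dexamethasone competition run 16 h at 4 °C; unbound radioligand stripped with dextran-coated charcoal (8 min, RT) and receptor-bound radioactivity quantified by scintillation counting.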

[1] = target: T3, human GR (glucocorticoid receptor) (Homo sapiens, UniProt P04150); test: Alternative Binding Assay Protocol (Method 2), 293-GR lysate, 3H-dexamethasone competition; settings: 0.3 nM 3H-dexamethasone
T3 construct: expressed in transfected cells; host or cells: 293 cells
T3 sequence (P04150 1-777): T2 sequence (P04150 1-777)
Procedure: Alternative Binding Assay Protocol for MR, GR, AR, and PR (Method 2):
Cell lysates from 293 cells overexpressing human GR (glucocorticoid receptor), AR (androgen receptor), MR (mineralocorticoid receptor) or PR (progesterone-receptor) are used for competition binding assays to determine Ki values for test compounds. […] Competing compounds are added at various concentraions in half-log increments. Non-specific binding is determined in the presence of 500 nM dexamethasone for GR binding, 500 nM aldosterone for MR binding, or 500 nM methyltrienolone for AR and PR binding. The binding reaction (140 μl) is incubated for overnight at 4° C., then 70 μl of cold charcoal-dextran buffer (containing per 50 ml of assay buffer, 0.75 g of charcoal and 0.25 g of dextran) is added to each reaction. Plates are mixed 8 minutes on an orbital shaker at 4° C. Plates are then centrifuged at 3,000 rpm at 4° C. for 10 minutes. An aliquot of 120 μl of the mix is transferred to another 96-well plate and 175 μl of Wallac Optiphase “Hisafe 3” scintillation fluid is added to each well. Plates are sealed and shaken vigorously on an orbital shaker. After an incubation of 2 hrs, plates are read in a Wallac Microbeta counter. […] The Kd for ^3H-dexamethasone for GR binding, ^3H-methyltrienolone for AR binding, ^3H-aldosterone for MR binding, or ^3H-methyltrienolone for PR binding, is determined by saturation binding. The IC50 values for compounds are converted to Ki using Cheng-Prusoff equation and the Kd determined by saturation binding assay.

Row | SMILES | Ki (human MR) | melting point | Ki (glucocorticoid receptor) | Ki [1]
1 | CCC(CC)(c1ccc2cc[nH]c2c1)c1c[nH]c2c(NS(C)(=O)=O)cccc12 [Example 159, N-{3-[1-Ethyl-1-(1H-indol-6-yl)-propyl]-1H-indol-7-yl}-methanesulfonamide] | < 500 nM | 110 to 115 °C |  | 
2 | CCC(CC)(c1ccc2oc(C)cc2c1)c1c[nH]c2c(NS(C)(=O)=O)cccc12 [Example 155, N-{3-[1-Ethyl-1-(2-methyl-benzofuran-5-yl)-propyl]-1H-indol-7-yl}-methanesulfonamide] |  | 100 to 105 °C |  | 
3 | CCC(CC)(c1ccc2ncsc2c1)c1c[nH]c2c(NS(C)(=O)=O)cccc12 [Example 149, N-[3-(1-Benzothiazol-6-yl-1-ethyl-propyl)-1H-indol-7-yl]-methanesulfonamide] | < 500 nM | 117 to 120 °C |  | 
4 | CCC(CC)(c1ccc2c(N)noc2c1)c1c[nH]c2c(NS(C)(=O)=O)cccc12 [Example 143, N-{3-[1-(3-Amino-benzo[d]isoxazol-6-yl)-1-ethyl-propyl]-1H-indol-7-yl}-methanesulfonamide] | < 500 nM | 95 to 105 °C |  | 
5 | CCC(CC)(c1ccc(F)cc1F)c1c[nH]c2c(NS(C)(=O)=O)cccc12 [Example 62, N-{3-[1-(2,4-Difluoro-phenyl)-1-ethyl-propyl]-1H-indol-7-yl}-methanesulfonamide] | < 500 nM | 144 to 147 °C | < 500 nM | 
6 | CCC(CC)(c1ccc2c(c1)nc(C)n2C)c1c[nH]c2c(NS(C)(=O)=O)cccc12 [Example 162, N-{3-[1-(1,2-Dimethyl-1H-benzoimidazol-5-yl)-1-ethyl-propyl]-1H-indol-7-yl}-methanesulfonamide] |  | 275 to 278 °C |  | 
7 | CCC(CC)(c1ccc2c(ccn2C(C)=O)c1)c1c[nH]c2c(NS(C)(=O)=O)cccc12 [Example 156, N-{3-[1-(1-Acetyl-1H-indol-5-yl)-1-ethyl-propyl]-1H-indol-7-yl}-methanesulfonamide] |  | 125 to 130 °C |  | 
8 | CCC(CC)(c1ccc2sc(C)nc2c1)c1c[nH]c2c(NS(C)(=O)=O)cccc12 [Example 140, N-{3-[1-Ethyl-1-(2-methyl-benzothiazol-5-yl)-propyl]-1H-indol-7-yl}-methanesulfonamide] |  | 112 to 117 °C |  | 
9 | CCC(CC)(c1ccc2nc(C)[nH]c2c1)c1c[nH]c2c(NS(C)(=O)=O)cccc12 [Example 154, N-{3-[1-Ethyl-1-(2-methyl-3H-benzoimidazol-5-yl)-propyl]-1H-indol-7-yl}-methanesulfonamide] |  | 188 to 192 °C |  | < 500 nM
10 | CCC(CC)(c1ccc2nc(N)sc2c1)c1c[nH]c2c(NS(C)(=O)=O)cccc12 [Example 144, N-{3-[1-(2-Amino-benzothiazol-6-yl)-1-ethyl-propyl]-1H-indol-7-yl}-methanesulfonamide] | < 500 nM | 155 to 160 °C |  | 
11 | CCC(CC)(c1ccc2ccn(C(C)=O)c2c1)c1c[nH]c2c(NS(C)(=O)=O)cccc12 [Example 158, N-{3-[1-(1-Acetyl-1H-indol-6-yl)-1-ethyl-propyl]-1H-indol-7-yl}-methanesulfonamide] |  | 216 to 218 °C |  | < 500 nM
12 | CCC(CC)(c1ccc2scnc2c1)c1c[nH]c2c(NS(C)(=O)=O)cccc12 [Example 142, N-[3-(1-Benzothiazol-5-yl-1-ethyl-propyl)-1H-indol-7-yl]-methanesulfonamide] | < 500 nM | 105 to 115 °C (dec.) |  | 
13 | CCC(CC)(c1ccc2sc(NC(C)=O)nc2c1)c1c[nH]c2c(NS(C)(=O)=O)cccc12 [Example 150, N-{5-[1-Ethyl-1-(7-methanesulfonylamino-1H-indol-3-yl)-propyl]-benzothiazol-2-yl}-acetamide] |  | 266 to 268 °C |  | 
14 | CCC(CC)(c1ccc2[nH]ccc2c1)c1c[nH]c2c(NS(C)(=O)=O)cccc12 [Example 157, N-{3-[1-Ethyl-1-(1H-indol-5-yl)-propyl]-1H-indol-7-yl}-methanesulfonamide] | < 500 nM | 115 to 120 °C |  | 
15 | CCC(CC)(c1ccc2nc(C(F)(F)F)[nH]c2c1)c1c[nH]c2c(NS(C)(=O)=O)cccc12 [Example 151, N-{3-[1-Ethyl-1-(2-trifluoromethyl-3H-benzoimidazol-5-yl)-propyl]-1H-indol-7-yl}-methanesulfonamide] |  | 225 to 235 °C |  | 
16 | CCC(CC)(c1ccc(F)cc1)c1c[nH]c2c(NS(C)(=O)=O)cccc12 [Example 59, N-{3-[1-Ethyl-1-(4-fluoro-phenyl)-propyl]-1H-indol-7-yl}-methanesulfonamide] | < 500 nM | 137 to 138 °C | < 500 nM | 
17 | CCC(CC)(c1ccc2oc(C)nc2c1)c1c[nH]c2c(NS(C)(=O)=O)cccc12 [Example 145, N-{3-[1-Ethyl-1-(2-methyl-benzooxazol-5-yl)-propyl]-1H-indol-7-yl}-methanesulfonamide] |  | 152 to 160 °C |  | 
18 | CCC(CC)(c1ccc2onc(N)c2c1)c1c[nH]c2c(NS(C)(=O)=O)cccc12 [Example 152, N-{3-[1-(3-Amino-benzo[d]isoxazol-5-yl)-1-ethyl-propyl]-1H-indol-7-yl}-methanesulfonamide] | < 500 nM | 155 to 161 °C |  | 
19 | CCC(CC)(c1cccc2oc(C)cc12)c1c[nH]c2c(NS(C)(=O)=O)cccc12 [Example 160, N-{3-[1-Ethyl-1-(2-methyl-benzofuran-4-yl)-propyl]-1H-indol-7-yl}-methanesulfonamide] |  | 85 to 90 °C |  | 
